Values quoted from earlier work as cited in patent publication US10463679B2, “Compressed capsules for giving birth to males” (priority 2016, dated 2019).

Tests used:
[1] = manufacturer's web site and prescription accompanying Florinef tablet
[2] = sodium and chloride intake per day
mice = settings: for mice
[3] = one liter administered intravenously; glucose 5% + water, saline 9% sodium chloride + water, albumin

C[C@]12CCC(=O)C=C1CC[C@H]1[C@@H]3CC[C@](O)(C(=O)CO)[C@@]3(C)C[C@H](O)[C@@]12F [Fludrocortisone]
side effects of the drug [1]: skin thinning and fragility

[Cl-].[Na+] [Sodium chloride]
harmful dose [2]: 1000 g per day
lethal dose (mice): 2.5 g/kg per day

Saline
distribution of the solution among the three regions (intracellular, intercellular, blood vessels) [3]: distributed among the three regions but precipitated in the intercellular region
